Results reported in PMC6787355, “Purification, kinetic characterization, and site-directed mutagenesis of Methanothermobacter thermautotrophicus RFAP Synthase Produced in Escherichia coli” (AIMS Microbiology, 2019).
Values joined by “and” are separate entries in the source; they are usually repeats but may differ in a detail not shown here. Identical values can stand only once. Like-named read-outs stand apart in the source and are kept apart here.

What was measured:
[1] = two acidic pKa values; cited from earlier work
[2] = tested on: RFAP synthase from M. jannaschii; design: method as in PMID 9698382, PMID 15262968; conditions: read-out: apparent KM for pABA; cited from earlier work
[3] = tested on: RFAP synthase from M. thermophila; conditions: read-out: apparent KM for pABA; cited from earlier work
[4] = molecular target: T1, wild-type M. thermautotrophicus RFAP synthase (MTH0830) produced in E. coli (Methanothermobacter thermautotrophicus, UniProt O26918); experiment: RFAP synthase enzyme assay (azo-dye derivative of RFAP), wild-type recombinant enzyme; format: biochemical; conditions: for Vmax / Km: 8.8 mM PRPP; for Km: read-out: KM for pABA
T1 sequence (O26918 1-329): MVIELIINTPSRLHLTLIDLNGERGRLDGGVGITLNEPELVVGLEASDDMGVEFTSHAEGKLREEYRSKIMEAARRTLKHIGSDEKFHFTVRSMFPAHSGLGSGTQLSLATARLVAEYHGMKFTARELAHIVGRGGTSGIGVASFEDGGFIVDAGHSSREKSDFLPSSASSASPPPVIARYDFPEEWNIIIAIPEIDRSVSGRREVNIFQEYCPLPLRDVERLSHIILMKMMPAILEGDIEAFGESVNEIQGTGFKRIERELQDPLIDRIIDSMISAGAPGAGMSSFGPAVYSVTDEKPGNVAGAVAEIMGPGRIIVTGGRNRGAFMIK
Procedure: RFAP synthase activity was determined by producing the azo-dye derivative of the product RFAP as described previously [1],[17]. […] From this point on, the amount of enzyme used in activity assays was within the linear range of 8 to 12 µg. […] All assays were carried out under optimal enzymatic conditions in 70 mM PIPES (pH 6.8), 2 mM DTT at 70 °C for 1 h.

[5] = molecular target: wild-type MTH0830 RFAP synthase (Methanothermobacter thermautotrophicus, UniProt O26918); experiment: Isothermal titration calorimetry, wild-type enzyme; format: binding; conditions: ITC, 35 °C
Procedure: (§1) The ITC conditions previously established for M. jannaschii RFAP synthase were modified for the RFAP synthase from M. thermautotrophicus. Partially purified wild-type (heat-treated at 65 °C) and variant (heat-treated at 50 °C) RFAP synthases (2–5 mL) were dialyzed against two changes of buffer (250 mL each of 50 mM Tris, 100 mM NaCl, pH 7.6). […] All ITC measurements were carried out using a NANO-ITC isothermal titration calorimeter (TA Instruments, New Castle, DE).
(§2) Following an 1800 s delay, 10 injections of 5 µL of PRPP each were added every 240 seconds with stirring at 300 rpm.

[6] = molecular target: Methanothermobacter thermautotrophicus β-ribofuranosylaminobenzene 5′-phosphate (RFAP) synthase, wild type, recombinant (Methanothermobacter thermautotrophicus); experiment: SEC; Superdex 75 gel filtration column in 50 mM TES, 150 mM KCl, 2 mM DTT, ambient temperature; enzyme eluted after 19 min, corresponding to 68.7 kDa; subunit size from SDS-PAGE
[7] = molecular target: T2, MTH0830 RFAP synthase R26K variant (Methanothermobacter thermautotrophicus, UniProt O26918, R26K); experiment: Isothermal titration calorimetry, R26K variant; format: binding
T2 sequence (O26918 1-329 R26K): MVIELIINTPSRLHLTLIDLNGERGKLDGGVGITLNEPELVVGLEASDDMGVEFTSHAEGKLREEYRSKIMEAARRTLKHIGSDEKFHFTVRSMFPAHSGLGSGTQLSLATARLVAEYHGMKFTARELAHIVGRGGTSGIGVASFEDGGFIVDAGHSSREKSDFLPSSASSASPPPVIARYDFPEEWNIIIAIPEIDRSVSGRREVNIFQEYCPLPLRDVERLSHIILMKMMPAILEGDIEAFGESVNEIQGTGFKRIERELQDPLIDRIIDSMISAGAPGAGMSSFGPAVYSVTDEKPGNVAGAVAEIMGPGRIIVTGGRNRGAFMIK
Procedure: as §1, §2

[8] = molecular target: T3, MTH0830 RFAP synthase D19N variant (Methanothermobacter thermautotrophicus, UniProt O26918, D19N); experiment: Isothermal titration calorimetry, D19N variant; format: binding
T3 sequence (O26918 1-329 D19N): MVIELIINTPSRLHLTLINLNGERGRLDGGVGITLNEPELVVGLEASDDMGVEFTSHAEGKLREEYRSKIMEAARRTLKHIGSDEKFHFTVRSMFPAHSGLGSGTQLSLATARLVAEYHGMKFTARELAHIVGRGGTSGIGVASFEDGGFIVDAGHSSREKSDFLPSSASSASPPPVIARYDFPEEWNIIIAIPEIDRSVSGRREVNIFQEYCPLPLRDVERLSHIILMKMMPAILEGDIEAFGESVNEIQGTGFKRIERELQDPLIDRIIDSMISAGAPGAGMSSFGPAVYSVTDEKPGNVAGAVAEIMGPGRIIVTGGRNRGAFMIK
Procedure: as §1, §2

[9] = molecular target: RFAP synthase from M. jannaschii; design: method as in PMID 15262968; conditions: read-out: binding constant (KD) for PRPP; cited from earlier work
[10] = substrate: Nc1ccc(C(=O)O)cc1; experiment: purified protein, by the assay type
[11] = substrate: Nc1ccc(C(=O)O)cc1; experiment: RFAP synthase enzyme assay, R26K variant; format: biochemical, Methanothermobacter thermautotrophicus; conditions: other: 50 °C, 3 h, pH 6.8, 8.8 mM PRPP
Procedure: RFAP synthase activity was determined by producing the azo-dye derivative of the product RFAP as described previously,[17]. […] From this point on, the amount of enzyme used in activity assays was within the linear range of 8 to 12 µg. […] All assays were carried out under optimal enzymatic conditions in 70 mM PIPES (pH 6.8), 2 mM DTT at 70 °C for 1 h.
Due to the inability of the variants to function at 70 °C, the enzymatic assays comparing variant and wild-type kinetics were run in 70 mM PIPES (pH 6.8) with 2 mM DTT at 50 °C for three hours using a single time-point assay. This is the time period over which the enzyme activities were linear at the lower temperature of 50 °C. For these kinetic studies, the wild-type enzyme was purified in the same manner as the variants and was also examined at 50 °C for three hours.

## Nc1ccc(C(=O)O)cc1 [pABA, p-aminobenzoic acid]
[1]
  acidic pKa: 4.65 and 4.80
[2]
  Km: 0.15 mM
[3]
  Km: 0.058 mM
[4]; 50 °C, 3 h, pABA varied, partially purified
  Vmax: 1.45 nmol/min/mg and 1.5 nmol/min/mg
[4]; 70 °C, pABA varied 181 µM to 36 mM
  Vmax: approximately 190 nmol/min/mg protein
[4]; near neutral conditions versus homologs with pH optimum at 5.3
  fold higher KM compared to previous homologs: 26 fold
[4]; 50 °C, 3 h, pH 6.8, partially purified without heat step
  Km: 3.9 mM
[4]; 70 °C, pH 6.8, 1 h, 17.6 mM MgCl2, enzyme purified through Mono Q
  Km: 4.5 mM
[5]; in presence of saturating PRPP
  Kd: 0.96 ± 0.65 mM

## Methanothermobacter thermautotrophicus β-ribofuranosylaminobenzene 5′-phosphate (RFAP) synthase, wild type, recombinant (enzyme)
[6]
  stoichiometry N: 2

## O=P(O)(O)OC[C@H]1OC(OP(=O)(O)OP(=O)(O)O)[C@H](O)[C@@H]1O (some centres unmarked) [PRPP, phosphoribosyl-pyrophosphate]
[7]
  Kd: 2.4 ± 0.25 mM
[8]
  Kd: 2 ± 0.3 mM
[9]
  Kd: 2 mM
[5]; read-out: KD for PRPP
  Kd: 2.1 ± 0.11 mM

B1: wild-type M. thermautotrophicus RFAP synthase (MTH0830) produced in E. coli (Methanothermobacter thermautotrophicus str. Delta H) (protein)
chain: MVIELIINTPSRLHLTLIDLNGERGRLDGGVGITLNEPELVVGLEASDDMGVEFTSHAEGKLREEYRSKIMEAARRTLKHIGSDEKFHFTVRSMFPAHSGLGSGTQLSLATARLVAEYHGMKFTARELAHIVGRGGTSGIGVASFEDGGFIVDAGHSSREKSDFLPSSASSASPPPVIARYDFPEEWNIIIAIPEIDRSVSGRREVNIFQEYCPLPLRDVERLSHIILMKMMPAILEGDIEAFGESVNEIQGTGFKRIERELQDPLIDRIIDSMISAGAPGAGMSSFGPAVYSVTDEKPGNVAGAVAEIMGPGRIIVTGGRNRGAFMIK
[10]; other: 50 °C, 3 h, pH 6.8, 8.8 mM PRPP, partially purified without heat step, 50.0 °C
  Km: 3.9 mM
[10]; other: 70 °C, pH 6.8, 1 h, 8.8 mM PRPP, 17.6 mM MgCl2, enzyme purified through Mono Q, 70.0 °C
  Km: 4.5 mM
[10]; other: enzymatic assays, summary of Figure 3 and Table 2, pH 6.8
  Km: 4 mM

B2: MTH0830 RFAP synthase R26K variant (Methanothermobacter thermautotrophicus str. Delta H; R26K) (protein)
chain: MVIELIINTPSRLHLTLIDLNGERGKLDGGVGITLNEPELVVGLEASDDMGVEFTSHAEGKLREEYRSKIMEAARRTLKHIGSDEKFHFTVRSMFPAHSGLGSGTQLSLATARLVAEYHGMKFTARELAHIVGRGGTSGIGVASFEDGGFIVDAGHSSREKSDFLPSSASSASPPPVIARYDFPEEWNIIIAIPEIDRSVSGRREVNIFQEYCPLPLRDVERLSHIILMKMMPAILEGDIEAFGESVNEIQGTGFKRIERELQDPLIDRIIDSMISAGAPGAGMSSFGPAVYSVTDEKPGNVAGAVAEIMGPGRIIVTGGRNRGAFMIK
[11]
  Km: 38 mM
  Vmax: 0.005 µmol/min/mg

B3: MTH0830 RFAP synthase D19N variant (Methanothermobacter thermautotrophicus str. Delta H; D19N) (protein)
chain: MVIELIINTPSRLHLTLINLNGERGRLDGGVGITLNEPELVVGLEASDDMGVEFTSHAEGKLREEYRSKIMEAARRTLKHIGSDEKFHFTVRSMFPAHSGLGSGTQLSLATARLVAEYHGMKFTARELAHIVGRGGTSGIGVASFEDGGFIVDAGHSSREKSDFLPSSASSASPPPVIARYDFPEEWNIIIAIPEIDRSVSGRREVNIFQEYCPLPLRDVERLSHIILMKMMPAILEGDIEAFGESVNEIQGTGFKRIERELQDPLIDRIIDSMISAGAPGAGMSSFGPAVYSVTDEKPGNVAGAVAEIMGPGRIIVTGGRNRGAFMIK
[10]; other: 50 °C, 3 h, pH 6.8, 8.8 mM PRPP
  Km: 12 mM
